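Growth conditions: 96-well plates. Treatment: test compound, 48 hours, 5 concentrations. Analysis: linear interpolation between bracketing concentrations; unreached endpoints set to highest concentration. GI50 marks 50% less growth. TGI: concentration producing complete growth inhibition.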

Consider 27 compounds from PubChem BioAssay (NCI).

Common to all, as to experiment: growth of human tumour cells (NCI), 48 h
Assay [1] deals with A498 renal.
Assay [2] deals with OVCAR-4 ovarian.
Assay [3] relates to RPMI-8226 leukemia.
For assay [4], the system named is RXF 393 renal.
Assay [5] has as its system SF-295 CNS.
Assay [6] deals with SF-539 CNS.
Assay [7] relates to SK-MEL-2 melanoma.
For assay [8], the system named is SK-OV-3 ovarian.
For assay [9], the system named is T-47D breast.
Assay [10] deals with UACC-257 melanoma.

`CCOC(=O)CCC(NC(=O)Cc1ccc(Oc2nc3ccccc3nc2-c2ccccc2)cc1)C(=O)OCC` (centres undefined): the TGI in assay [1], in assay [2], in assay [3], in assay [4], in assay [5] and in [6] was greater than 100 µM throughout. The TGI was greater than 100 µM in assay [7], greater than 100 µM in assay [8], 99.7 µM in assay [9] and greater than 100 µM in assay [10].
Regarding `CN(C)CCNC(=O)c1ccc(Cl)c2cc3ccccc3nc12`, the TGI in assay [1] turned out to be 1.33 µM; in [2], 3.34 µM; in assay [3], 3.9 µM; in assay [4] it was 3.08 µM; in assay [5], 4.33 µM; in assay [6], 3.28 µM. Moreover, the TGI in assay [7] is 4.94 µM; in assay [8] it was 12.8 µM; in assay [9], 12.1 µM; in assay [10] it was 2.64 µM.
For `CCCC(=O)NC(Nc1ccc(F)cc1)(C(F)(F)F)C(F)(F)F`, the TGI is greater than 100 µM in assay [1]; greater than 74.2 µM in assay [2]; greater than 100 µM in assay [3]; greater than 100 µM in assay [4]; greater than 100 µM in assay [5]; greater than 100 µM in [6]. Moreover, the TGI in assay [7] is 67 µM; in [8], greater than 100 µM; in [9], greater than 100 µM; in [10], greater than 100 µM.
On to `O=[N+]([O-])c1ccc(N2N=C(c3ccc4ccccc4c3O)CC2c2ccc(Cl)cc2)c([N+](=O)[O-])c1` (centres undefined), for which the TGI in assay [1] is greater than 100 µM; in [2] it was greater than 100 µM; in [3], 63.2 µM; in [4], greater than 100 µM; in [5], greater than 100 µM; in assay [6], greater than 100 µM. In addition, the TGI in assay [7], in [8], in assay [9] and in [10] was greater than 100 µM each time.
Turning to `CC(=O)OCCCCn1cc(Cn2ccc(=O)n(Cc3cn(CCCCOC(C)=O)nn3)c2=O)nn1`, the TGI in assay [1], in assay [2], in [3], in assay [4], in assay [5] and in assay [6] was greater than 100 µM each time. In addition, the TGI in assay [7], in assay [8], in assay [9] and in assay [10] was greater than 100 µM each time.
Regarding `Cc1cc(N2CCCC2)c([N+](=O)[O-])cc1[N+](=O)[O-]`, the TGI in assay [1], in assay [2], in assay [3], in assay [4], in assay [5] and in assay [6] was greater than 100 µM each time. The TGI in assay [7], in [8], in assay [9] and in [10] was greater than 100 µM each time.
Consider `Cc1c2ccccc2c(C)n2c1nc1ccccc12`, for which the TGI in [1] was 25.5 µM; in [3], greater than 100 µM; in [4], 21.5 µM; in [5] it was 25.3 µM; in assay [6], 18.6 µM; in assay [8], 27.1 µM. The values for the TGI in [9] and in assay [10] were 89.6 µM and 76.4 µM, respectively.
Regarding `Nc1nc(=O)n(C2OC(CO)C(O)C2O)c2ncc(-c3ccc(-c4ccccc4)cc3)nc12` (centres undefined), the TGI in assay [1], in [2], in [3], in assay [4], in [5] and in [6] was greater than 100 µM each time. Moreover, the TGI in assay [7], in assay [8], in assay [9] and in assay [10] was greater than 100 µM each time.
`COC(=O)C1=CON2C3CC4CC(C3)CC(C4)C12C` (centres undefined): the TGI in assay [1], in assay [2], in assay [3], in [4], in assay [5] and in [6] was greater than 100 µM in each case. Besides, the TGI in assay [7], in [8], in [9] and in assay [10] was greater than 100 µM throughout.
Take `CNC(=S)NNc1ncnc2c1ncn2-c1ccc(C)cc1`: the TGI in [1], in assay [2], in [3], in assay [4], in assay [5] and in [6] was greater than 100 µM in each case. Also, the TGI in assay [7], in assay [8], in [9] and in assay [10] was greater than 100 µM throughout.
In the case of `COc1ccc([C@]23CCN4COC[C@@H]([C@H]42)C2(CC3)OCC(C)(C)CO2)cc1OC`, the TGI in [1], in [2], in [3], in assay [4], in assay [5] and in assay [7] was greater than 100 µM throughout. For the same compound, the TGI in assay [8], in assay [9] and in [10] was greater than 100 µM throughout.
As for `COc1ccc2c(c1)c1nn(CCN3CCCCC3)c3ccc4c(=O)n(CCN(C)C)c(=O)n2c4c13`, the TGI in assay [1] is 0.119 µM; in [2] it was 0.0158 µM; in assay [3] it was 0.0862 µM; in [4], less than 0.0374 µM; in assay [5], less than 0.0192 µM; in assay [6], 0.975 µM. For the same compound, the TGI in [7] was found to be 0.271 µM; in [8] it was 2.91 µM; in [9], 0.454 µM; in assay [10] it was 0.885 µM.
For `Cc1ccc(S(=O)(=O)n2ccc(-c3ccc4ccn(S(=O)(=O)c5ccc(C)cc5)c4c3)c2)cc1`, the TGI in assay [1] is greater than 100 µM; in [2], greater than 100 µM; in [3] it was greater than 100 µM; in assay [4], 39.3 µM; in assay [5], greater than 100 µM; in assay [6], greater than 100 µM. In addition, the TGI in assay [7], in [8], in [9] and in assay [10] was greater than 100 µM throughout.
With `O=[N+]([O-])c1ccc(O)c(/C=N/c2nc(-c3ccccc3)cs2)c1`, the TGI is greater than 100 µM in [1]; greater than 100 µM in [2]; 30.9 µM in [3]; 45.1 µM in [4]; greater than 95.9 µM in assay [5]; 70.5 µM in assay [7]. In addition, the TGI in assay [8] was 89.5 µM; in assay [9], 91.6 µM; in assay [10], greater than 100 µM.
As for `COc1ccc(C2SCC(=O)N2NC(=O)C(C)Oc2ccccc2C)cc1` (centres undefined), the TGI in assay [1], in assay [2], in assay [3], in [4], in assay [5] and in [6] was greater than 100 µM each time. The TGI in assay [7], in assay [8], in assay [9] and in [10] was greater than 100 µM in each case.
In the case of `Cc1ccc2c(C(=O)c3c(C)n(CCN4CCOCC4)c4ccccc34)cccc2c1`, the TGI in assay [1] was greater than 100 µM; in assay [2], 61.1 µM; in assay [3] it was 18.6 µM; in assay [4] it was 54.6 µM; in assay [5] it was 37.1 µM; in [6], 12.8 µM. Besides, the TGI was 42.4 µM in assay [7], 61 µM in [8], greater than 100 µM in assay [9] and 69.4 µM in assay [10].
In the case of `CCCN(CCC)C1CCc2c(ccc3cc[nH]c23)C1` (centres undefined), the TGI in [1], in assay [2], in assay [3], in [4], in [5] and in assay [6] was greater than 100 µM throughout. In addition, the TGI in assay [7] is greater than 100 µM; in assay [8], greater than 100 µM; in assay [9], greater than 100 µM; in [10], 81.2 µM.
Take `CC(=O)OC(C)c1cc2c(s1)C(=O)c1c(C(C)OC(C)=O)csc1C2=O` (centres undefined): the TGI in assay [1] amounted to 3.64 µM; in assay [2], 2.75 µM; in assay [3], 4.98 µM; in assay [4] it was 4.39 µM; in [5], 2.59 µM; in assay [6] it was 2.36 µM. Besides, the TGI in assay [7] came to 3.56 µM; in assay [8], 13.8 µM; in assay [9], 5.52 µM; in [10], 1.89 µM. Further, the GI50 is 1.56 µM in assay [7] and 0.631 µM in assay [10].
As for `COC(=O)c1cccc(OC)c1C#Cc1c(OC)cccc1OC`, the TGI in [1], in [2], in assay [3], in [4], in assay [5] and in [6] was greater than 100 µM in each case. Also, the TGI in assay [7], in [8], in assay [9] and in assay [10] was greater than 100 µM each time.
As to `CC1=CCC[C@H]2[C@](C)(CC3=CC(=O)C(Sc4ccccc4)=CC3=O)[C@@H](C)CC[C@]12C`, the TGI in assay [1] was determined as 39 µM; in assay [2] it was 43.7 µM; in [3], 46.1 µM; in [4] it was 34.3 µM; in [5], 32.9 µM; in assay [6], 34.6 µM. Moreover, the results for the TGI in assay [7], in assay [9] and in [10] were 56.1 µM, 72 µM and 32.5 µM, respectively. The GI50 in [3] is 20.2 µM; in assay [4], 16.1 µM; in [7] it was 19.9 µM; in [9] it was 20.4 µM.
Take `CC(C)(C)OC(=O)N1[C@@H]2Cc3ccc(N)cc3[C@@]1(C)c1ccccc12`: the TGI was 79.6 µM in assay [1]; greater than 100 µM in assay [2]; 48.6 µM in assay [3]; 31.1 µM in assay [4]; greater than 100 µM in [5]; 43.4 µM in [7]. Besides, the TGI in [8] is greater than 100 µM; in assay [9], 70.7 µM; in assay [10] it was 78.2 µM.
As to `O=C1C2=C(SCCS2)C(=O)c2c(Sc3ccc(Cl)cc3)c(Sc3ccc(Cl)cc3)c(Sc3ccc(Cl)cc3)c(Sc3ccc(Cl)cc3)c21`, the TGI in assay [1] was 73.7 µM; in assay [2] it was greater than 100 µM; in assay [3] it was greater than 100 µM; in assay [4] it was 99.4 µM; in assay [5], greater than 100 µM; in [7], greater than 100 µM. Besides, the TGI in [8], in assay [9] and in assay [10] was greater than 100 µM each time.
As for `CCOC(=O)C(=O)CC(=O)C1=C(c2ccccc2OC)CC(c2cccs2)=CC1=O`, the TGI in assay [1], in [3], in [4], in [5], in assay [6] and in assay [7] was greater than 100 µM throughout. Further, the TGI in assay [8], in [9] and in assay [10] was greater than 100 µM in each case.
`O=C(C(Cl)=C(N1CCCCC1)N1CCCCC1)C(Cl)Cl`: the TGI in [1], in assay [2], in assay [3], in assay [4], in [5] and in assay [6] was greater than 100 µM throughout. Further, the TGI in assay [8], in [9] and in assay [10] was greater than 100 µM throughout.
Regarding `CCCCCN(CCCCC)CC(C)(C)C(O)c1ccc(OC)c2ccccc12` (centres undefined), the TGI is 28.1 µM in assay [1]; 27.9 µM in assay [2]; 32.1 µM in assay [3]; 24.1 µM in assay [4]; 29.7 µM in [5]; 17.6 µM in assay [6]. The TGI in [7] came to 32.7 µM; in assay [9], 21.1 µM; in assay [10], 26.1 µM.
For the compound `CC(=O)OC(C)(C)CCC(=O)[C@](C)(O)[C@H]1[C@H](O)C[C@@]2(C)[C@@H]3CC=C4C(C)=C(OC5OC(CO)C(O)C(O)C5O)C(=O)C[C@@H]4[C@]3(C)C(=O)C[C@]12C` (some centres undefined), the TGI in assay [1], in [2], in assay [4], in assay [5], in [6] and in [7] was greater than 100 µM each time. Also, the TGI in assay [8], in [9] and in assay [10] was greater than 100 µM in each case.
On to `COc1c2ccsc2c(OC)c2ccsc12`, for which the TGI in assay [1], in assay [2], in assay [4], in [5], in [6] and in assay [7] was greater than 100 µM in each case. For the same compound, the TGI in [8], in assay [9] and in [10] was greater than 100 µM each time.
